Key:
[1] = biological target: 5-hydroxytryptamine receptor 1A (Homo sapiens) (UniProt P08908); conditions: Compound concentration 10.0 uM
[2] = biological target: Beta-3 adrenergic receptor (Homo sapiens) (UniProt P13945); conditions: Compound concentration 10.0 uM
[3] = biological target: Histamine H4 receptor (Homo sapiens) (UniProt Q9H3N8); conditions: Compound concentration 10.0 uM
[4] = biological target: Muscarinic acetylcholine receptor M3 (Homo sapiens) (UniProt P20309); conditions: Compound concentration 10.0 uM
[5] = biological target: 5-hydroxytryptamine receptor 1B (Homo sapiens) (UniProt P28222); conditions: Compound concentration 10.0 uM
[6] = biological target: Alpha-1A adrenergic receptor (Homo sapiens) (UniProt P35348); conditions: Compound concentration 10.0 uM
Alpha-1A adrenergic receptor (Homo sapiens), sequence (P35348 whole entry): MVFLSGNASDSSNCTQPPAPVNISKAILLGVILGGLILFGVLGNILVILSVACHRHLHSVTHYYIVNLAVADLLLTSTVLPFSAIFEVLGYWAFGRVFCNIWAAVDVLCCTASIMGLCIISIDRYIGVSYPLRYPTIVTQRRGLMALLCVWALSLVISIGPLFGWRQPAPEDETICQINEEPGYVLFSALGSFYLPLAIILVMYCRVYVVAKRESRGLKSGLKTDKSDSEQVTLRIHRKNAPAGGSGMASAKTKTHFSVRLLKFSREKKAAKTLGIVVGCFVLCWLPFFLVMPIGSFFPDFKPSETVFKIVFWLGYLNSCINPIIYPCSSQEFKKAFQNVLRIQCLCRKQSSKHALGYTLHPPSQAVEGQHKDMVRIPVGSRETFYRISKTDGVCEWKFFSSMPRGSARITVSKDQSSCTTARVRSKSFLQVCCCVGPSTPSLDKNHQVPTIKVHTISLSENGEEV

[7] = biological target: Sodium-dependent serotonin transporter (Homo sapiens) (UniProt P31645); conditions: Compound concentration 10.0 uM
[8] = biological target: 5-hydroxytryptamine receptor 7 (Homo sapiens) (UniProt P34969); conditions: Compound concentration 10.0 uM
Rattus norvegicus = species: Rattus norvegicus; conditions: Compound concentration 10.0 uM
[9] = biological target: Mu-type opioid receptor (Homo sapiens) (UniProt P35372); conditions: Compound concentration 10.0 uM
Mu-type opioid receptor (Homo sapiens), sequence (P35372 whole entry): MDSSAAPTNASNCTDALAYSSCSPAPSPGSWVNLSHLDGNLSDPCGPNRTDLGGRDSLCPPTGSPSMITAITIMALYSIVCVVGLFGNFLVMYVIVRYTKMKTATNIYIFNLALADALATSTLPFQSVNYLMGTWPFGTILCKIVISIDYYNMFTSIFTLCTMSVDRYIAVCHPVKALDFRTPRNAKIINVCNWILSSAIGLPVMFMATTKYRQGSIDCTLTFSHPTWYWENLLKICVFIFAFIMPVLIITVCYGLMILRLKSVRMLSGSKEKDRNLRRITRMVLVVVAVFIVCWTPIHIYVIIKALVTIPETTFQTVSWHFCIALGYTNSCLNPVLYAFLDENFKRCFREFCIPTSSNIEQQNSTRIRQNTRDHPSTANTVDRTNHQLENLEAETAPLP

[10] = biological target: Sodium-dependent noradrenaline transporter (Homo sapiens) (UniProt P23975); conditions: Compound concentration 10.0 uM
[11] = biological target: Alpha-1B adrenergic receptor (Homo sapiens) (UniProt P35368); conditions: Compound concentration 10.0 uM
Alpha-1B adrenergic receptor (Homo sapiens), sequence (P35368 whole entry): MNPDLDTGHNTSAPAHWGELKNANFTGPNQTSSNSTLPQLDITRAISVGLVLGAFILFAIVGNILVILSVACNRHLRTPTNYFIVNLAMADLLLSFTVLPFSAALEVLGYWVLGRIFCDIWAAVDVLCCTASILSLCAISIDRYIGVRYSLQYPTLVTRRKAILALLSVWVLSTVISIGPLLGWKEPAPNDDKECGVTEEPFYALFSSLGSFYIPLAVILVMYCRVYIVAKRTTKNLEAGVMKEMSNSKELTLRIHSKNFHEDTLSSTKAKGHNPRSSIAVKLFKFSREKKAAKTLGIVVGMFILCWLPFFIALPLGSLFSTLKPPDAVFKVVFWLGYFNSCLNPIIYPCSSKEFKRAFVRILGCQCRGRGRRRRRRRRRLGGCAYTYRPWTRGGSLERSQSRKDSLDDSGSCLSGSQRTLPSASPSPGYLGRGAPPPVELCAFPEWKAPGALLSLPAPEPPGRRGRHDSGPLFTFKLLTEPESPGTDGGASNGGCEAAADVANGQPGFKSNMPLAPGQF

[12] = biological target: Kappa-type opioid receptor (Homo sapiens) (UniProt P41145); conditions: Compound concentration 10.0 uM
Kappa-type opioid receptor (Homo sapiens), sequence (P41145 whole entry): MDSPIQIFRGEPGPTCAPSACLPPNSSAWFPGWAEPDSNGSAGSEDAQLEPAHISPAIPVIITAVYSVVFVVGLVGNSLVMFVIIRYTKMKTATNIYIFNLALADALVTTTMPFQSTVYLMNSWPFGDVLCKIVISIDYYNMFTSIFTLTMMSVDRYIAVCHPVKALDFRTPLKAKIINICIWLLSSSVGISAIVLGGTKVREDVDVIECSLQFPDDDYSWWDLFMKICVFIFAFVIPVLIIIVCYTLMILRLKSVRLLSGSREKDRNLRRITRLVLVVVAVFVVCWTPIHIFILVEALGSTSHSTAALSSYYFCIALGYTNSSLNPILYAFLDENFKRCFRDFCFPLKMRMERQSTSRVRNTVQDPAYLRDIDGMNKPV

[13] = biological target: Alpha-2C adrenergic receptor (Homo sapiens) (UniProt P18825); conditions: Compound concentration 10.0 uM
[14] = biological target: Muscarinic acetylcholine receptor M5 (Homo sapiens) (UniProt P08912); conditions: Compound concentration 10.0 uM
Muscarinic acetylcholine receptor M5 (Homo sapiens), sequence (P08912 whole entry): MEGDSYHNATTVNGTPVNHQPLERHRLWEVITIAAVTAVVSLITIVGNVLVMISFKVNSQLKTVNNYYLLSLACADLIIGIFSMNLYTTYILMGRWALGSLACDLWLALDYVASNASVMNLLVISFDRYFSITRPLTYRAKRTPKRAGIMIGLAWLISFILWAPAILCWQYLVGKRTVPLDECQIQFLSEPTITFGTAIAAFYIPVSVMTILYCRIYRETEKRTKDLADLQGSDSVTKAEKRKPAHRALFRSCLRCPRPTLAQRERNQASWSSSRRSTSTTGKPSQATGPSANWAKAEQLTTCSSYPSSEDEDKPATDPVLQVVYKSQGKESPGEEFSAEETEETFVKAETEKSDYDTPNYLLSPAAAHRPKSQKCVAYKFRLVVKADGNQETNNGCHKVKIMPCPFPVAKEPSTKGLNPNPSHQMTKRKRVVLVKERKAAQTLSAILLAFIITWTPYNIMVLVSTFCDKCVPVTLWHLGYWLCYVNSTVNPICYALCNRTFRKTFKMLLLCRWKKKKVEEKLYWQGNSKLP

[15] = biological target: 5-hydroxytryptamine receptor 2A (Homo sapiens) (UniProt P28223); conditions: Compound concentration 10.0 uM
[16] = biological target: Muscarinic acetylcholine receptor M1 (Homo sapiens) (UniProt P11229); conditions: Compound concentration 10.0 uM
[17] = biological target: T1, Sigma intracellular receptor 2 (Homo sapiens, UniProt Q5BJF2); conditions: Compound concentration 10.0 uM
T1 sequence (Q5BJF2 whole entry): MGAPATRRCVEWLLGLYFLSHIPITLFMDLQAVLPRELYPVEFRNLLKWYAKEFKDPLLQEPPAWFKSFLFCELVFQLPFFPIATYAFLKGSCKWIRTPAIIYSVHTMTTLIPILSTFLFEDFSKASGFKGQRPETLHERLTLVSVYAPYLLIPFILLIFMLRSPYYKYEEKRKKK

[18] = biological target: T1, Sigma intracellular receptor 2; assay: GPCRScan assay: inhibition of Sigma 2; set-up: radioligand conc. used [nm] 5.0, parental cells HEKT
[19] = biological target: Muscarinic acetylcholine receptor M2 (Homo sapiens) (UniProt P08172); conditions: Compound concentration 10.0 uM
[20] = biological target: 5-hydroxytryptamine receptor 3A (Homo sapiens) (UniProt P46098); conditions: Compound concentration 10.0 uM
[21] = biological target: D(1B) dopamine receptor (Homo sapiens) (UniProt P21918); conditions: Compound concentration 10.0 uM
D(1B) dopamine receptor (Homo sapiens), sequence (P21918 whole entry): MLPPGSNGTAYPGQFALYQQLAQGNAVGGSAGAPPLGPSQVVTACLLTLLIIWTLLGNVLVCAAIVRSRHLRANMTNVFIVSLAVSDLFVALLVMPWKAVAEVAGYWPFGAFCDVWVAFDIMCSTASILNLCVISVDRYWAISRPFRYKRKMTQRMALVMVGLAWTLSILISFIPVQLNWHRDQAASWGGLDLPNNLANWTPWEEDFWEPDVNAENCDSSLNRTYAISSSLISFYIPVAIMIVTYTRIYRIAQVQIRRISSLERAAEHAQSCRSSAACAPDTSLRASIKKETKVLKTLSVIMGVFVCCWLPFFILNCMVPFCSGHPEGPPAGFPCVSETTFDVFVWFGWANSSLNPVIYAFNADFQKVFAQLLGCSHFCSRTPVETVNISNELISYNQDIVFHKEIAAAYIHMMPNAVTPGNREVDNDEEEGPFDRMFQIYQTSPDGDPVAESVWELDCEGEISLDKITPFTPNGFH

[22] = biological target: Histamine H1 receptor (Homo sapiens) (UniProt P35367); conditions: Compound concentration 10.0 uM
Histamine H1 receptor (Homo sapiens), sequence (P35367 whole entry): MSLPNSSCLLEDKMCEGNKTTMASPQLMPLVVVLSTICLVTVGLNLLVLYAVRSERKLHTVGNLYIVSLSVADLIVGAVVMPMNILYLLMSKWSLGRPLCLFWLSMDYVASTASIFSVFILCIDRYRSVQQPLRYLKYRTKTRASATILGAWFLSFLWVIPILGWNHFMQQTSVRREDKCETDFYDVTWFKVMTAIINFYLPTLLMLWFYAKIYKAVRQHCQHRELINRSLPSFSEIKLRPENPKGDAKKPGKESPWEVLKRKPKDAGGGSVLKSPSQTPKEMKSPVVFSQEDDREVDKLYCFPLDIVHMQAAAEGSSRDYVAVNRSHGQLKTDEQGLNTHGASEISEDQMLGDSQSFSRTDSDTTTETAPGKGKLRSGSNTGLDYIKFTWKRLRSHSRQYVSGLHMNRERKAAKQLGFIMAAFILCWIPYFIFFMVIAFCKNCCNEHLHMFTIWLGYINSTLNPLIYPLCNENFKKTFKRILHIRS

[23] = biological target: 5-hydroxytryptamine receptor 2B (Homo sapiens) (UniProt P41595); conditions: Compound concentration 10.0 uM
[24] = biological target: Alpha-1D adrenergic receptor (Homo sapiens) (UniProt P25100); conditions: Compound concentration 10.0 uM
[25] = biological target: 5-hydroxytryptamine receptor 2C (Homo sapiens) (UniProt P28335); conditions: Compound concentration 10.0 uM
[26] = biological target: Alpha-2A adrenergic receptor (Homo sapiens) (UniProt P08913); conditions: Compound concentration 10.0 uM
Alpha-2A adrenergic receptor (Homo sapiens), sequence (P08913 whole entry): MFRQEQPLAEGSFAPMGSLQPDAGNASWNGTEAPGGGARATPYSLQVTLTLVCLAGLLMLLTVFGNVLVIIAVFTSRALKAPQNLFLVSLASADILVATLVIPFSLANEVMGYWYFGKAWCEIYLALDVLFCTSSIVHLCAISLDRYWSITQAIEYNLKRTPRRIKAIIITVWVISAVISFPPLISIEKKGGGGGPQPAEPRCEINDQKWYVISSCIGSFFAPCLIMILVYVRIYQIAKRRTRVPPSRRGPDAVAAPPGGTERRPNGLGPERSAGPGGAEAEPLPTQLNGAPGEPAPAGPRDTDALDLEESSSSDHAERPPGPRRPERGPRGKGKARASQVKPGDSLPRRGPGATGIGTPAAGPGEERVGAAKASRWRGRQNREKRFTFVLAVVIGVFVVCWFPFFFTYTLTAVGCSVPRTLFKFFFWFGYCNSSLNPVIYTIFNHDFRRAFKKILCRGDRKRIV

[27] = biological target: D(4) dopamine receptor (Homo sapiens) (UniProt P21917); conditions: Compound concentration 10.0 uM
[28] = biological target: Delta-type opioid receptor (Homo sapiens) (UniProt P41143); conditions: Compound concentration 10.0 uM
[29] = biological target: 5-hydroxytryptamine receptor 5A (Homo sapiens) (UniProt P47898); conditions: Compound concentration 10.0 uM
[30] = biological target: Muscarinic acetylcholine receptor M4 (Homo sapiens) (UniProt P08173); conditions: Compound concentration 10.0 uM
[31] = biological target: Beta-2 adrenergic receptor (Homo sapiens) (UniProt P07550); conditions: Compound concentration 10.0 uM
[32] = biological target: Beta-1 adrenergic receptor (Homo sapiens) (UniProt P08588); conditions: Compound concentration 10.0 uM
[33] = biological target: Alpha-2B adrenergic receptor (Homo sapiens) (UniProt P18089); conditions: Compound concentration 10.0 uM
[34] = biological target: 5-hydroxytryptamine receptor 6 (Homo sapiens) (UniProt P50406); conditions: Compound concentration 10.0 uM
[35] = biological target: Sodium-dependent dopamine transporter (Homo sapiens) (UniProt Q01959); conditions: Compound concentration 10.0 uM
Sodium-dependent dopamine transporter (Homo sapiens), sequence (Q01959 whole entry): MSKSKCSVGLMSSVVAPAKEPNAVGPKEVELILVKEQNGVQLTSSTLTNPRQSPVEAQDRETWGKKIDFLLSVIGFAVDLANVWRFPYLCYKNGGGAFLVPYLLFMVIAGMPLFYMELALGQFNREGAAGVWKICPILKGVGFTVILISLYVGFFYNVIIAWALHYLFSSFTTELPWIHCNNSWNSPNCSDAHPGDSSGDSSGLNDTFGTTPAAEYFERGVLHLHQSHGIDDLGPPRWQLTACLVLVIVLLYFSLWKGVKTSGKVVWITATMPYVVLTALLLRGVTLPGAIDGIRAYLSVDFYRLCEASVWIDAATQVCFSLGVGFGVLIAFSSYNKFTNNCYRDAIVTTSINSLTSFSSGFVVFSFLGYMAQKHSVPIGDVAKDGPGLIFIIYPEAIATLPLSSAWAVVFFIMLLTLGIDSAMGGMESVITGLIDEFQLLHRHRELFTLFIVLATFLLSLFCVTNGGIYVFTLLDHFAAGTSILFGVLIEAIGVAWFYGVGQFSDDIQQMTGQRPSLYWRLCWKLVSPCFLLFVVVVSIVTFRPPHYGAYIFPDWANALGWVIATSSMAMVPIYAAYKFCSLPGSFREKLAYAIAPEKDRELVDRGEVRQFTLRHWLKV

5-hydroxytryptamine receptor 1A (Homo sapiens), sequence (P08908 whole entry): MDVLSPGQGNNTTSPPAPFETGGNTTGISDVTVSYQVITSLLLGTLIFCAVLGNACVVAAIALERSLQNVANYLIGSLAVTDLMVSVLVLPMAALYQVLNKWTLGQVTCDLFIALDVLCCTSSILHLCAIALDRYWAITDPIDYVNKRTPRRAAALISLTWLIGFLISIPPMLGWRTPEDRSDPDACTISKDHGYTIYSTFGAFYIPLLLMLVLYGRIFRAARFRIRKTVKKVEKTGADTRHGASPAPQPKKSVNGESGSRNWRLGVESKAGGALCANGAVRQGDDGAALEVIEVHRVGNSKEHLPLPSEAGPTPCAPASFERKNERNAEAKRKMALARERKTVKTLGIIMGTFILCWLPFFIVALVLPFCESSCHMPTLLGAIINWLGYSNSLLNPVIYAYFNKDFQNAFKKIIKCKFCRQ

Q: For `Cc1c(Oc2ccc(F)cc2)c(OC(C)C)nn1-c1ccc(C2CC2)cn1` [IPP/CNRS-A019], which inhibition [1] is on record?
A: 0.45%

Q: What about the inhibition [2] of the same compound?
A: 17.6%

Q: What about the inhibition [3] of the same compound?
A: -0.91%

Q: And the inhibition [4]?
A: -6.6%

Q: And the inhibition [5]?
A: -6.09%

Q: And the inhibition [6]?
A: -2.65%

Q: And the inhibition [7]?
A: -0.39%

Q: And the inhibition [8]?
A: 15.8%

Q: What about the inhibition (Rattus norvegicus) of the same compound?
A: -2.86%

Q: What about the inhibition [9] of the same compound?
A: -1.35%

Q: What about the inhibition [10] of the same compound?
A: 0.15%

Q: And the inhibition [11]?
A: -4.23%

Q: And the inhibition [12]?
A: -0.09%

Q: And the inhibition [13]?
A: 8.56%

Q: What about the inhibition [14] of the same compound?
A: 4.72%

Q: And the inhibition [15]?
A: -7.39%

Q: What about the inhibition [16] of the same compound?
A: 5.35%

Q: What about the inhibition [17] of the same compound?
A: 64.9%

Q: And the Ki ([18]; read-out: Ki)?
A: 5.25 µM

Q: What about the Ki ([18]; read-out: pKi (converted)) of the same compound?
A: 4.47 µM

Q: And the inhibition [19]?
A: 16.2%

Q: What about the inhibition [20] of the same compound?
A: 11.7%

Q: What about the inhibition [21] of the same compound?
A: -2.37%

Q: And the inhibition [22]?
A: 21.2%

Q: And the inhibition [23]?
A: 22.8%

Q: What about the inhibition [24] of the same compound?
A: -0.81%

Q: And the inhibition [25]?
A: -1.77%

Q: What about the inhibition [26] of the same compound?
A: 7.06%

Q: And the inhibition [27]?
A: -4.56%

Q: And the inhibition [28]?
A: 1.01%

Q: And the inhibition [29]?
A: -6.43%

Q: What about the inhibition [30] of the same compound?
A: 10.3%

Q: What about the inhibition [31] of the same compound?
A: 17%

Q: And the inhibition [32]?
A: 23.9%

Q: And the inhibition [33]?
A: 13.3%

Q: And the inhibition [34]?
A: 9.36%

Q: What about the inhibition [35] of the same compound?
A: -6.74%

— ChEMBL document CHEMBL4507312 (2021)
